# Experimental data from patent US20070185176A1, “Heparanase inhibitors and uses thereof” (Insight Bioharmaceuticals Ltd., priority 2004, published 2007).
# Biological target: T1, human recombinant heparanase (h-hpa) (Homo sapiens, UniProt Q9Y251)
# T1 sequence (Q9Y251 158-543 limits assumed): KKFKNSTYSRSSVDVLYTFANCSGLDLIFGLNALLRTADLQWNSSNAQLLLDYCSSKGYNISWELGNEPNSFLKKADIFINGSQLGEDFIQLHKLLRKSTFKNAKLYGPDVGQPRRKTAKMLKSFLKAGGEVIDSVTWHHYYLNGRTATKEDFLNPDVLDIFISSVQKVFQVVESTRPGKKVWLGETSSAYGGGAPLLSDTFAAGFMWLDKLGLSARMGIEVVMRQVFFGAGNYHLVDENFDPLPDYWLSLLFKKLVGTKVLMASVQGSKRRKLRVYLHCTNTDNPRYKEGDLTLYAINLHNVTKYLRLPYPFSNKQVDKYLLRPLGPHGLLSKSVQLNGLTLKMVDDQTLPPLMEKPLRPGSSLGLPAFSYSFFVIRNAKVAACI
# T1 sequence (Q9Y251 36-109 limits assumed): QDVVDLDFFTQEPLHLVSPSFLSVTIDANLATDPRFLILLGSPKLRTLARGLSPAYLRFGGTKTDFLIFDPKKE
# Test: In vitro dimethylmethylene blue (DMB) assay for heparanase activity
# Procedure: (a) In Vitro Dimethylmethylene Blue (DMB) Assay for Heparanase Activity
# Heparin Sepharose CL-6B beads were added up to the top of the wells of a multiscreen column loader (Millipore). A 96-well multiscreen plate containing 0.65 μm hydrophilic, low protein binding, Durapore membrane (Millipore) was placed, upside down, on top of the multiscreen column loader. The column loader and the multiscreen plate were held together, turned over, and the beads were uniformly transferred from the column loader to the multiscreen plate (Millipore, MADVM 650). Double-distilled water (DDW) was then added to the beads, which were allowed to swell for one minute, and then washed (three times) with DDW under vacuum. Heparin concentration was estimated to be 10 μM/well.
# To each well, phosphate-buffered saline (PBS) containing 1% bovine serum albumin (BSA; 70 μl/well) and DMB (32 mg of DMB were dissolved in 5 ml ethanol, diluted to 1 liter with formate buffer containing 4 g sodium formate and 4 ml formic acid; 120 μl/well) were added. Color was developed after 5 minutes, and the absorbance of the samples was determined using a microplate reader (Spectra Max, Molecular Devices) at 530 nm with 570 nm as reference. The absorbance correlated to heparanase activity. As a control, heparanase was added to the heparin Sepharose swollen beads in the multiscreen plate and the heparanase reaction products were filtered immediately thereafter and the absorbance of these control samples was subtracted from all other samples.
# The cell extracts were centrifuged and resuspended in 20 mM phosphate citrate buffer, pH 5.4 containing 50 mM NaCl. The cells were lysed by three cycles of freezing and thawing. The cell lysates were centrifuged (10000×g for 5 min), supernatants were collected and then assayed for heparanase activity using the DMB assay.
# The partially purified human recombinant heparanase or the crude cell extracts expressing either human or mouse recombinant heparanase were added for a 3-hour incubation and the reaction continued as described above. Absorbance of the developing color was measured as described above.
row,Structure (SMILES),IC50
1,CCCCCCCCCCCCCCCCCC1=NN(c2ccc(Oc3ccccc3)c(S(=O)(=O)O)c2)C(=O)C1/N=N/c1ccccc1N(C)C (stereo not shown) [Compound 5],220 nM
2,CCCCCCCCCCCCCCCCCC1=NN(c2ccc(Oc3ccccc3)c(S(=O)(=O)O)c2)C(=O)C1Br (stereo not shown) [Compound 6],250 nM
3,CCCCCCCCCCCCCCCCCC1=NN(c2ccc(Oc3ccccc3)c(S(=O)(=O)O)c2)C(=O)C1/N=N/c1ccc(OC)cc1 (stereo not shown) [Compound 7],240 nM
4,CCCCCCCCCCCCCCCCCC1=NN(c2ccc(Oc3ccccc3)c(S(=O)(=O)O)c2)C(=O)C1/N=N/c1cc(OC)ccc1OC (stereo not shown) [Compound 8],210 nM
5,CCCCCCCCCCCCCCCCCC1=NN(c2ccc(Oc3ccccc3)c(S(=O)(=O)O)c2)C(=O)C1/N=N/c1cccc(C(=O)O)c1 (stereo not shown) [Compound 11],180 nM
6,CCCCCCCCCCCCCCCCCCCCC1=NN(c2ccc(S(=O)(=O)O)cc2N)C(=O)C1 [Compound 14],870 nM
7,CCCCCCCCCCCCCCCCCC(=O)NC1=NN(c2ccc(Oc3ccccc3)c(S(=O)(=O)O)c2)C(=O)C1/N=N/c1ccc(O)c(C(=O)O)c1 (stereo not shown) [Compound 20],190 nM
8,CCCCCCCCCCCCCCCCCC1=NN(c2ccc(Oc3ccccc3)c(S(=O)(=O)O)c2)C(=O)C1/N=N/c1ccc(O)c(C(=O)O)c1 (stereo not shown) [Compound 21],310 nM
9,CCCCCCCCCCCCCCCCCCOc1ccc(C(=O)CC(=O)Nc2ccc(Oc3cccc(C(=O)O)c3)c(C(=O)O)c2)cc1 [Compound 23],400 nM
10,CCCCCCCCCCCCCCCCCC1=NN(c2ccc(Oc3ccccc3)c(S(=O)(=O)O)c2)C(=O)C1/N=N/c1ccc(S(=O)(=O)O)cc1 (stereo not shown) [Compound 25],270 nM
11,CCCCCCCCCCCCCCCCCC1=NN(c2ccc(Oc3ccccc3)c(S(=O)(=O)O)c2)C(=O)C1/N=N/c1ccc(NC(C)=O)cc1 (stereo not shown) [Compound 26],130 nM
12,CCCCCCCCCCCCCCCCCC(=O)Nc1ccc(C(=O)NC2=NN(c3ccc(Oc4ccccc4)c(S(=O)(=O)O)c3)C(=O)C2/N=N/c2ccc(NS(=O)(=O)c3ccc(C)cc3)cc2)cc1 (stereo not shown) [Compound 27],270 nM
13,CCCCCCCCCCCCCCCCCCN(C)c1ccc(S(=O)(=O)O)cc1NC(=O)c1cc(/N=N/c2cccc(NS(=O)(=O)c3ccccc3)c2)c2ccccc2c1O [Compound 33],210 nM
14,CCCCCCCCCCCCCCCCCCN(C)c1ccc(S(=O)(=O)O)cc1NC(=O)c1cc(/N=N/c2cc(-c3ccccc3)ccc2O)c2ccccc2c1O [Compound 34],310 nM
15,CCCCCCCCCCCCCCCCCC1=Nn2c(nc3cc(S(=O)(=O)O)ccc32)C1S(=O)(=O)O (stereo not shown) [Compound 35],1340 nM
16,CCCCCCCCCCCCCCCCCC1=Nn2c(nc3cc(C(=O)O)ccc32)C1S(=O)(=O)O (stereo not shown) [Compound 36],1420 nM
17,CCCCCCCCCCCCCCCCCC1=NN(c2ccc(-c3nc4cc(S(=O)(=O)O)ccc4s3)cc2)C(=O)/C1=N\c1ccc(N(CC)CC)cc1 [Compound 37],1500 nM
18,CCCCCCCCCCCCCCCCCC1=NN(c2nc3ccc(S(=O)(=O)O)cc3[nH]2)C(=O)/C1=N\c1ccc(N(CC)CC)cc1 [Compound 38],1450 nM
19,CCCCCCCCCCCCCCCCCC1=NN(c2nc3cc(C(=O)O)cc(C(=O)O)c3s2)C(=O)C1 [Compound 39],2800 nM
20,CCCCCCCCCCCCCCCCCC(=O)Nc1ccc(NC(=O)c2cc(/N=N/c3cc(C(=O)O)c(O)cc3O)c3ccccc3c2O)cc1S(=O)(=O)O [Compound 40],230 nM
21,CCCCCCCCCCCCCCCCCCN(C)c1ccc(S(=O)(=O)O)cc1NC(=O)c1cc(S(=O)(=O)O)c2ccccc2c1O [Compound 41],490 nM

row,Structure (SMILES),IC50
1,CCCCCCCCCCCCCCCCCCn1c(-c2ccc3ccccc3c2O)nc2cc(S(=O)(=O)O)ccc21 [Compound 42],480 nM
2,CCCCCCCCCCCCCCCCCCOc1ccc(C(=O)CC(=O)Nc2ccc(Sc3ccccc3C(=O)O)c(C(=O)O)c2)cc1 [Compound 44],210 nM
3,CCCCCCCCCCCCCCCCCCN(C)c1ccc(S(=O)(=O)O)cc1NC(=O)c1cc(/N=N/c2ccc(NS(=O)(=O)c3ccc(C)cc3)cc2)c2ccccc2c1O [Compound 45],500 nM
4,CCCCCCCCCCCCCCCCCCOc1ccc(C(=O)O)cc1NC(=O)c1cc(Sc2nnnn2-c2ccccc2)c2ccccc2c1O [Compound 46],7700 nM
5,CCCCCCCCCCCCCCCCCCN(C)c1ccc(S(=O)(=O)O)cc1NC(=O)c1cc(/N=N/c2cccc(NS(C)(=O)=O)c2)c2ccccc2c1O [Compound 47],250 nM
6,CCCCCCCCCCCCCCCCCCOc1ccc(S(=O)(=O)N/N=C2\N(CC)c3ccccc3C2(C)C)cc1C(=O)O [Compound 48],950 nM
7,CCCCCCCCCCCCCCCCCCOc1ccc(S(=O)(=O)O)cc1NC(=O)c1cc(/N=N/c2ccccc2C(=O)O)c2ccccc2c1O [Compound 49],2700 nM
8,CCCCCCCCCCCCCCCCCCN(C)c1ccc(C(=O)O)cc1NC(=O)c1cc(/N=N/c2cc(C(=O)O)ccc2O)c2ccccc2c1O [Compound 50],4500 nM
9,CCCCCCCCCCCCCCCCCCC(=O)CC(=O)Nc1ccc(Oc2ccc(C(=O)O)cc2)c(C(=O)O)c1 [Compound 51],3000 nM
10,CCCCCCCCCCCCCCCCCCN(C)c1ccc(S(=O)(=O)O)cc1NC(=O)c1cc(/N=N/c2cc(NS(=O)(=O)c3ccc(C)cc3)ccc2Cl)c2ccccc2c1O [Compound 52],740 nM
11,CCCCCCCCCCCCCCCCCCN(C)c1ccc(S(=O)(=O)O)cc1NC(=O)c1cc(/N=N/c2c(Cl)cccc2Cl)c2ccccc2c1O [Compound 53],400 nM
12,CCCCCCCCCCCCCCCCS(=O)(=O)c1ccc(N2N=C(NC(=O)c3ccccc3S(=O)(=O)O)C(/N=N\c3ccc(O)cc3Cl)C2=O)cc1 (stereo not shown) [Compound 54],200 nM
13,CCCCCCCCCCCCCCCCCCN(C)c1ccc(S(=O)(=O)O)cc1NC(=O)c1cc(/N=N/c2cc(OC)c(O)cc2Cl)c2ccccc2c1O [Compound 55],430 nM
14,C=CCCCCCCCCCCCCCCC(CC(=O)NC1=NN(c2c(Cl)cc(Cl)cc2Cl)C(=O)C1)C(=O)O (stereo not shown) [Compound 56],6800 nM
15,CCCCCCCCCCCCCCCCn1c(/N=C/c2c(O)ccc3cc([N+](=O)[O-])ccc23)nc2ccccc21 [Compound 57],7800 nM
16,CCCCCCCCCCCCCCCCn1c(/N=C/c2cc(Cl)cc(Br)c2O)nc2ccccc21 [Compound 58],3000 nM
17,CCCCCCCCCCCCCCCCCCOc1ccc(S(=O)(=O)Nc2cccc(S(=O)(=O)N/N=C3\N(C)c4ccccc4C3(C)C)c2)cc1C(=O)O [Compound 59],490 nM
18,CCCCCCCCCCCCCCCCCC(=O)Nc1ccc(C(=O)CC(=O)Nc2cc(C(=O)O)ccc2Oc2cc(C(=O)O)cc(C(=O)O)c2)cc1 [Compound 60],440 nM
19,CCCCCCCCCCCCCCCCCC(=O)Nc1cc(C(=O)O)ccc1Oc1cc(C(=O)O)cc(C(=O)O)c1 [Compound 61],2000 nM
20,CCCCCCCCCCCCCCCCCCN(C)c1ccc(C(=O)O)cc1NC(=O)c1cc(/N=N/c2cc(C(=O)OC)ccc2O)c2ccccc2c1O [Compound 62],11600 nM
21,CCCCCCCCCCCCCCCCCCNc1ccc(C(=O)O)cc1NC(=O)c1cc(/N=N/c2ccc(NS(=O)(=O)c3ccc(C)cc3)cc2C)c2ccccc2c1O [Compound 63],16800 nM

row,Structure (SMILES),IC50
1,CCCCCCCCCCCCCCCCCCOc1ccccc1C(=O)CC(=O)Nc1cc(NS(=O)(=O)c2cc(C(=O)O)cc(C(=O)O)c2)ccc1Cl [Compound 64],290 nM
2,CCCCCCCCCCCCCCCCn1c(=N)n(CC(O)c2ccc(OC)c(OC)c2)c2ccccc21 (stereo not shown) [Compound 65],4800 nM
3,CCCCCCCCCCCCCCCCCCN1/C(=C/C=C/c2oc3ccccc3[n+]2CCCCCCCCCCCCCCCCCC)Oc2ccccc21 [Compound 66],1000 nM
4,CCCCCCCCCCCCCCCCCCN1/C(=C/C=C/c2sc3ccccc3[n+]2CCCCCCCCCCCCCCCCCC)Sc2ccccc21 [Compound 67],1500 nM
5,CCCCCCCCCCNCC(O)Cn1c2ccc(Cl)cc2c2cc(Cl)ccc21 (stereo not shown) [Compound 68],6800 nM
6,CCCCCCCCCCCCCCCCCC(=O)NC1=NN(c2ccc(Oc3ccccc3)c(S(=O)(=O)O)c2)C(=O)C1/N=N/c1ccc(O)cc1Cl (stereo not shown) [Compound 69],180 nM
7,CCCCCCCCCCCCCCCCCCNC(=O)Nc1ccc(S(=O)(=O)O)cc1 [Compound 70],7000 nM
8,CCCCCCCCCCCC(=O)NC1=NN(c2ccc(Oc3ccccc3)c(S(=O)(=O)O)c2)C(=O)C1 [Compound 71],2650 nM
9,CCCCCCCCCCCCCCCCCCNC(=O)c1cc(S(=O)(=O)O)c2ccccc2c1O [Compound 72],320 nM
10,CCCCCCCCCCCCCCCCCCn1c(C)nc2cc(S(=O)(=O)O)ccc21 [Compound 73],1400 nM
11,CCCCCCCCCCCCCCCC(=O)NC(CN1CCOCC1)C(O)c1ccccc1 (stereo not shown) [Compound 74],19000 nM
12,CCCCCCCCCCCCCCCC1=CN(c2ccc(S(=O)(=O)O)cc2)C(=O)C1 [Compound 75],1600 nM
13,CCCCCCCCCCCCCCCCOc1ccc(/C(=N\NS(=O)(=O)c2cc(C(=O)O)cc(C(=O)O)c2)N2CCCCC2)cc1OC [Compound 76],3000 nM
14,CCCCCCCCCCCCCCCCCCN(C)c1ccc(S(=O)(=O)O)cc1NC(=O)c1cc(O)c2ccccc2c1 [Compound 77],340 nM
15,CCCCCCCCCCCCCCCC(=O)OC[C@H](O)C1OC(=O)C(O)=C1O (stereo partly shown) [Compound 78],9000 nM
16,CCCCCCCCCCCCCCCCCC[n+]1c2cc(N(C)C)ccc2cc2ccc(N(C)C)cc21 [Compound 79],1600 nM
17,CCCCCCCCCCCCCCCC[n+]1ccc(C=NO)cc1 [Compound 80],17000 nM
18,O=C(O)CCCCCCCCCCN1C(=O)/C(=C/c2cccc(Br)c2)SC1=S [Compound 81],18000 nM
19,CCN1C(=O)/C(=C2\SC(=S)N(CCCCCCCCCCC(=O)O)C2=O)c2ccccc21 [Compound 82],17000 nM
